The results in this text go back to patent US7025991B2, “Drug targeting system, method of its preparation and its use” (NanoDel Technologies GmbH, priority 1997, dated 2006).

For the experiment, the system named is mice. Description: hot plate test (analgesic effect) after intravenous or oral application. The class given is in vivo. The settings on record: intravenous injection, dalargin dose 10.0 mg/kg. The text has this: Dalargin was given either in solution, or after sorptive binding to nanoparticles. The groups (n=10) are as follows:
Dalargin was given either in solution, or after sorptive binding to nanoparticles. The data were collected at different time points following oral application.
Dalargin was given either in solution, or after sorptive binding to nanoparticles that were stabilized with Dextran 12.000.
Dalargin was adsorbed to poly(butyl cyanoacrylate) nanoparticles which were stabilized with polysorbate 85.
After this time, the preparation was injected intravenously into mice at a dalargin dose of 10.0 mg/kg. Various preparations include pure dalargin solution and empty nanoparticles served as controls.
Activity threshold was measured with the hot plate test.
2. […] The analgesia was determined 30, 45, 60, 90, 120 and 150 min after p.o. application.
4. To test the question whether other stabilizers may be used to achieve the desired effect, nanoparticles were investigated in which the stabilizer was the low molecular size dextran 12,000. The dextran 12,000 stabilized nanoparticles of Example 2 were loaded with dalargin, and the analgesic effect was determined in the hot plate test after intravenous injection into mice.

Turning to dalargin, the “analgesic effect, hot plate test” value is “did not exhibit any analgesic effect”. In addition, the “analgesic effect, hot plate test” value (listed as dalargin alone) was “None of the control groups (empty nanoparticles and dalargin alone) exhibited any analgesic effects”.
